Source: PubChem BioAssay (NCI)
“And” between values parts separate entries of the source, which are not always exact repeats. Equal values may be shown once.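 Compound exposure: 48 hours, 5 concentrations, 96-well plates. Here, GI50 denotes the concentration required for 50% inhibition of growth. TGI: total growth inhibition.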

Key:
Test in all cases: NCI tumour cell line growth inhibition, 48 h
[1] = tested on: ACHN renal
[2] = tested on: TK-10 renal
[3] = tested on: PC-3 prostate
[4] = tested on: HOP-62 NSCLC
[5] = tested on: NCI-H23 lung
[6] = tested on: U251 CNS
[7] = tested on: COLO 205 colon
[8] = tested on: BT-549 breast
[9] = tested on: MDA-MB-435
[10] = tested on: HOP-92 NSCLC

| Compound | TGI [1] | TGI [2] | TGI [3] | TGI [4] | TGI [5] | TGI [6] | TGI [7] | TGI [8] | TGI [9] | TGI [10] | GI50 [1] | GI50 [2] | GI50 [3] | GI50 [4] | GI50 [5] | GI50 [6] | GI50 [7] | GI50 [8] | GI50 [9] | GI50 [10] |
| --- | --- | --- | --- | --- | --- | --- | --- | --- | --- | --- | --- | --- | --- | --- | --- | --- | --- | --- | --- | --- |
| CCc1[nH]c(=O)nc(N)c1-c1ccc(N2CCCCC2)c([N+](=O)[O-])c1 | > 100 µM | > 100 µM | > 100 µM | > 100 µM | > 100 µM | > 100 µM | > 100 µM | > 100 µM | > 100 µM | > 100 µM | – | – | – | – | – | – | – | – | – | – |
| CN/N=C(/CCN1CCCC1)CC(c1ccccc1)c1c(O)c2ccccc2oc1=O (stereo unspecified) | > 100 µM | > 100 µM | > 100 µM | > 100 µM | > 100 µM | > 100 µM | > 91.4 µM | > 100 µM | > 100 µM | 41.8 µM | – | – | – | – | – | – | – | – | – | – |
| CC(=O)OC1Oc2ccccc2-c2oc(=O)c(-c3cc4ccc(N(C)C)cc4oc3=O)cc21 (stereo unspecified) | 23.2 µM | 19.5 µM | 32.6 µM | 25.4 µM | 23.7 µM | 23.7 µM | 41.5 µM | 20.7 µM | 46.8 µM | 23.3 µM | 10.4 µM | 5.4 µM | 10.5 µM | 4.63 µM | 10.6 µM | 10.5 µM | 16.4 µM | 3.67 µM | 13.3 µM | 4.8 µM |
| O=C(N/N=C/c1cccc(O)c1O)c1ccccc1 | > 100 µM | > 69.1 µM | > 100 µM | > 100 µM | > 100 µM | > 100 µM | > 55.7 µM | > 73 µM | > 100 µM | 8.38 µM | 0.477 µM | 2.57 µM | 0.725 µM | 1.52 µM | 0.992 µM | 0.569 µM | 1.97 µM | 1.84 µM | 1.88 µM | 0.329 µM |
| O=C(c1cccc(O)c1O)c1cn(Cc2ccc(F)cc2)c2cccc(O)c12 | 14.9 µM | 26.8 µM | 26.7 µM | 19.5 µM | 19.8 µM | 15.2 µM | 10.7 µM | 21.6 µM | 36.3 µM | 7.44 µM | 3.2 µM | 7.01 µM | 6.92 µM | 5.41 µM | 4.12 µM | 2.95 µM | 2.77 µM | 7.72 µM | 5.23 µM | 0.361 µM |
| CC1CN1CC(O)C(O)CN1CC1C (stereo unspecified) | – | 65.7 µM | > 78.4 µM | > 71.9 µM | > 75.4 µM | > 64.8 µM | > 38.5 µM | 87.1 µM | 24.8 µM | > 28.6 µM | 0.395 µM | 7.7 µM | 12.5 µM | 2.89 µM | 2.37 µM | 1.36 µM | 5.45 µM | 6.43 µM | 4.93 µM | 6.12 µM |
| CCS(=O)(=O)c1ccc(OC)c(Nc2ncc(-c3cccc(OC)c3)o2)c1 | > 25 µM | 18.6 µM | > 25 µM | > 25 µM | > 25 µM | > 25 µM | > 25 µM | > 25 µM | > 25 µM | 9.17 µM | 6.61 µM | 6.5 µM | 8.61 µM | 9.41 µM | 8.3 µM | 8.09 µM | 10.3 µM | 14.6 µM | 18.2 µM | 2.76 µM |
| COc1cc(C2=NN(C(C)=O)C(c3ccc(OC(C)=O)cc3OC(C)=O)O2)c(OC(C)=O)c2ccccc12 (stereo unspecified) | > 35.6 µM | 35.1 µM | 35.4 µM | 14.6 µM | > 78.9 µM | 14.8 µM | 10.1 µM | 47.6 µM | 39 µM | 30.7 µM | 0.447 µM | 1.31 µM | 0.753 µM | 0.565 µM | 2.55 µM | 0.472 µM | 2.58 µM | 1.87 µM | 1.38 µM | 2.07 µM |
| COc1cc2oc(-c3ccc(O)cc3)cc(=O)c2c(OC)c1OC | > 100 µM | > 100 µM | > 100 µM | > 100 µM | > 100 µM | > 100 µM | > 100 µM | > 100 µM | > 100 µM | > 100 µM | – | – | – | – | – | – | – | – | – | – |
| CN(C)CCCn1c2c(c3ccccc3c1=O)C(=O)c1ccccc1-2 | 2.15 µM | 11.3 µM | 13.7 µM | 6.61 µM | 8.39 µM | 6.37 µM | 24.8 µM | 19.9 µM | 12 µM | 5.59 µM | 0.507 µM | 1.67 µM | 2.27 µM | 1.74 µM | 1.75 µM | 1.47 µM | 7.52 µM | 5.53 µM | 2.82 µM | 0.421 µM |
| Nc1ncc(-c2cnn(CCO)c2)c2scc(-c3ccc(NC(=O)Nc4cccc(F)c4)cc3)c12 | 4.75 µM | 3.43 µM | 3.28 µM | 2.71 µM | 2.3 µM | 1.72 µM | < 0.0307 µM | 3.76 µM | 1.83 µM | 0.733 µM | 0.289 µM | 0.394 µM | 0.288 µM | 0.418 µM | 0.211 µM | 0.301 µM | < 0.01 µM | 0.618 µM | 0.209 µM | 0.227 µM |
| COC(=O)Nc1nc2ccc(Oc3ccc(NC(=O)Nc4ccccc4)cc3)cc2[nH]1 | > 25 µM | 9.74 µM | > 9.6 µM | 2.52 µM | > 12.3 µM | 6.6 µM | 0.487 µM | 11.8 µM | 0.12 µM | 11.1 µM | 0.466 µM | 0.787 µM | 0.15 µM | 0.109 µM | 0.545 µM | 0.126 µM | 0.0835 µM | 1.61 µM | 0.0474 µM | 0.555 µM |
| C[N+](C)(C)CC1CCCC(C[N+](C)(C)C)C1=O (stereo unspecified) | 1.82 µM | 4 µM | 10.3 µM | 43.3 µM | 5.84 µM | 10.3 µM | 0.923 µM | 3.09 µM | 3.43 µM | 1.17 µM | – | – | – | – | – | – | – | – | – | – |
| NCCCC[C@@H]1NC(=O)[C@H]2CCCN2C(=O)[C@H](Cc2ccccc2)NC(=O)[C@H](Cc2ccccc2)CNC1=O | > 100 µM | > 100 µM | > 100 µM | > 100 µM | > 100 µM | > 100 µM | > 100 µM | > 100 µM | > 100 µM | > 100 µM | > 100 µM | > 100 µM | > 100 µM | > 100 µM | > 100 µM | > 100 µM | > 100 µM | > 100 µM | > 100 µM | 44.1 µM |
| CCN1C(=O)CNc2ncc(-c3ccc(-c4ncn[nH]4)nc3C)nc21 | 2.16 µM | 1.36 µM | 1.97 µM | 2.46 µM | 8.27 µM | 9.64 µM | 1.72 µM | 0.695 µM | 1.63 µM | 0.168 µM | 0.14 µM | 0.0833 µM | 0.0706 µM | 0.14 µM | 0.238 µM | 0.289 µM | 0.16 µM | 0.0716 µM | 0.162 µM | 0.0212 µM |
| CCN(CC)c1sc(N(CC)CC)c2c1SSSSS2 | 3.28 µM | 1.88 µM | 4.26 µM | 4.99 µM | 0.674 µM | 13.2 µM | – | 4.8 µM | 2.09 µM | 5.92 µM | 1.07 µM | 0.765 µM | 2.05 µM | 2.61 µM | 0.255 µM | 2.76 µM | 0.937 µM | 2.06 µM | 0.844 µM | 2.87 µM |
| Cc1ccc(/C(=C/C=C(C#N)C#N)Sc2ccc(Cl)cc2)cc1 | 36.9 µM | 7.31 µM | 14.7 µM | 15.6 µM | 23.4 µM | 14.8 µM | 30.4 µM | 9.16 µM | 10.7 µM | 56.6 µM | 4.62 µM | 2.12 µM | 3.65 µM | 6.4 µM | 9.54 µM | 3.65 µM | 7.58 µM | 3.37 µM | 3.02 µM | 15 µM |
| COc1ccc(C(=O)COc2cccc(/C=C3\COc4ccc5ccccc5c4C3=O)c2)cc1 | > 100 µM | > 100 µM | > 100 µM | > 100 µM | > 100 µM | > 100 µM | > 100 µM | > 100 µM | 41.3 µM | 8.14 µM | 80.7 µM | 24.2 µM | 3.5 µM | 29.7 µM | 5.17 µM | 5.61 µM | 16.9 µM | 8.44 µM | 4.08 µM | 0.786 µM |
| CCC1(O)C(=O)OCc2c1cc1n(c2=O)Cc2cc3ccc(C=O)cc3nc2-1 (stereo unspecified) | 38.9 µM and 5.51 µM | 50 µM and > 100 µM | 50 µM and > 100 µM | 14.9 µM and 1.56 µM | 2.71 µM and 16.7 µM | 50 µM and 8.82 µM | 12.5 µM and 31.3 µM | 29.8 µM and 59.6 µM | 31.2 µM and 35.7 µM | 42 µM and 84.4 µM | 1.73 µM | 20.8 µM | – | 0.476 µM | 0.816 µM | 1.02 µM | 5.77 µM | 4.56 µM | 5.9 µM | – |
| O=C(Nc1ccc(Cl)cc1)c1cc(-c2ccc(F)cc2)c2sc(=O)[nH]c2n1 | 4.02 µM | 4.94 µM | 13.3 µM | 5.69 µM | 5.79 µM | 4.71 µM | 3.82 µM | 6.88 µM | 17.4 µM | 0.94 µM | 1.69 µM | 1.88 µM | 0.65 µM | 2.04 µM | 1.19 µM | 1.5 µM | 1.76 µM | 1.73 µM | 3.01 µM | 0.204 µM |
